# Measurements: patent EP4782434A1, “N-SULFONYL CARBOXAMIDE COMPOUND, AND PREPARATION METHOD THEREFOR AND USE THEREOF” (Nutshell Therapeutics (Shanghai) Co., Ltd., priority 2023, dated 2025)
# Columns and labels:
# Polθ ATPase = target: T1, Polθ ATPase (Homo sapiens, UniProt O75417); test: Polθ ATPase activity assay (ADP-Glo Kinase Assay kit); format: biochemical; details: truncated POLQ-N protein (aa 1-894) 1 nM, 50 nM ssDNA, 50 µM ATP
# T1 construct: purified truncated POLQ-N protein (aa 1-894, N-terminal 6-His tag); 6-His (N)
# Protocol: The inhibitory efficiency of the compounds of formula (I) against Polθ ATPase activity was determined using the ADP-Glo Kinase Assay kit (Promega, V9101). […] The starting (final) concentration was 100 nM, followed by a 3-fold serial dilution for a total of 10 concentration points in duplicate (n=2). 5 μL of purified […], N-terminal 6-His tag) was added to each well. After centrifugation at 1000 rpm for 1 minute, the plate was incubated at 25°C for 10 minutes. 5 μL of substrate reaction solution (containing ATP & ssDNA) was added to each well, and the reaction was carried out at 25°C for 60 minutes. 5 μL of ADP-Glo Reagent was added to each well. After centrifugation at 1000 rpm for 1 minute, the plate was incubated at 25°C for 40 minutes. 10 μL of detection solution was added to each well. After centrifugation at 1000 rpm for 1 minute, the plate was incubated at 25°C for 40 minutes. Luminescence signals were recorded using a microplate reader (BMG, PHERAstar FSX). The final reaction system contained 1 nM of POLQ-N enzyme; 50 nM of ssDNA ([NT]); 50 μM of ATP; and 1% DMSO. The inhibition percentage (%) of the compound at each concentration was calculated using the RFU values normalized against the control wells within each assay plate. Table 1: Inhibitory activity of compounds against Polθ ATPase
# DLD-1 BRCA2-/- cells = test: DLD-1 BRCA2-/- cell proliferation assay (CellTiter-Glo, 10 days incubation); format: cell-based; details: Homo sapiens, 240 h, DLD-1 BRCA2-/- cell line, total incubation period of 10 days, read-out: DLD1 BRCA2^-/- IC50
# Excerpt: The anti-proliferative effect of the compounds on the human colorectal adenocarcinoma cell line DLD-1 BRCA2^-/- method.
# • DLD-1 (purchased from ATCC, Cat. No.: CCL-221, Batch No.: 70033255); • RPMI1640 (purchased from Invitrogen, Cat. No.: 11875-085); • 0.25% Trypsin-EDTA (purchased from Invitrogen, Cat. No.: 25200-072); • Penicillin-Streptomycin solution (purchased from Hyclone, Cat. No.: SV30010); • FBS (purchased from BI, Cat. No.: 04-002-1A); • DMSO (purchased from Sigma, Cat. No.: D4540-1L); • 96-well plate (purchased from Corning, Cat. No.: CLS3903); • CellTiter-Glo reagent (purchased from Promega, Cat. No.: G7558).
# The anti-proliferative effect of the compounds on a human colorectal adenocarcinoma cell line was evaluated using an ATP quantification method, wherein the measured activity correlates well with the number of viable cells. The genetically edited cell line DLD-1 BRCA2^-/- was cultured in RPMI 1640 medium (Invitrogen, 11875-085) supplemented with 10% (v/v) fetal bovine serum (BI, 04-002-1A). The cell line was cultured according to the standard instructions of the American Type Culture Collection (ATCC) and identified via short tandem repeat (STR) genotyping.
# In the proliferation assay, cells were harvested and resuspended in cell culture medium. Cell density was determined using a cell counter. An appropriate volume of cell suspension was aspirated from the centrifuge tube to prepare a plating working solution (150 cells/100 µL for the DLD-1 BRCA2^-/- cell line). 100 µL of the cell suspension was seeded into each well of a 96-well plate (Corning, 3603) and incubated overnight in an incubator. The diluted test compound solutions were added to the wells. On the fourth and seventh days of compound incubation, the medium was replaced with fresh culture medium, and the compounds were re-administered, for a total incubation period of 10 days. Following incubation, the cell culture plates were removed and equilibrated to room temperature. 100 µL of CellTiter-Glo (Promega, G7558) was added to each well, and the plate was incubated at room temperature for 30 minutes. Data were read using a microplate reader (PerkinElmer, Enspire) in 96-well luminescence mode. Data analysis, curve fitting, and reporting were performed using the dose-response one-site 205 model of IDBS XL fit. Table 2: Proliferation inhibitory activity of compounds against DLD-1 BRCA2-/- cells
# [1] = test system: Theta-mediated end joining (TMEJ) process in HEK293T cells; test: TMEJ reporter assay (NanoGlo luciferase); format: cell-based; details: Homo sapiens, HEK-293T, HEK293T cells electroporated with TMEJ substrate, 24 hours
# Protocol: The inhibitory effect of the compounds on the Theta-mediated end joining (TMEJ) process was evaluated.
# (1) HEK293T cells were cultured in DMEM supplemented with 10% heat-inactivated fetal bovine serum (FBS) and 1% penicillin-streptomycin (PS). (2) Prior to startup, the Neon transfection system was disinfected, and E2 and R buffers were equilibrated to room temperature. (3) Culture medium without antibiotics was pre-warmed. (4) Cells in the flask reaching 80-90% confluency were trypsinized, neutralized with culture medium, centrifuged, and counted. (5) For transfection using a 100 µL electroporation tip, 2 × 10^6 cells were taken, washed once with DPBS (without Mg^2+ and Ca^2+), centrifuged at 1000 rpm for 5 min, and the supernatant was discarded. The number of cells and volume may be increased as required. (6) The Neon system was set up; a Neon tube was inserted into the Neon pipette and E2 buffer was added. (7) 10 µg of TMEJ substrate was added to 100 µL of R solution; the volume may be increased as required. (8) Cells were resuspended in DNA buffer, and electroporation was initiated according to the following parameters:
# (9) The cells were loaded into antibiotic-free culture medium and mixed gently. (10) Steps (8)-(9) were repeated as necessary, and cells were seeded into 384-well plates at a density of 40,000 cells/well in 40 µL of culture medium. (11) The plates were incubated in a humidified CO2 incubator at 37°C for 24 hours. (12) NanoGlo reagent was warmed to room temperature, and NanoGlo buffer was mixed with the substrate at a ratio of 50:1. (13) The cell culture plates were equilibrated at room temperature for 10 minutes. (14) 40 µL of NanoGlo substrate buffer was added to each well, followed by shaking at 300 rpm for 3 minutes protected from light. (15) Signals were read via a BMG PHERAstar FSX.
# T1 sequence (O75417 1-894): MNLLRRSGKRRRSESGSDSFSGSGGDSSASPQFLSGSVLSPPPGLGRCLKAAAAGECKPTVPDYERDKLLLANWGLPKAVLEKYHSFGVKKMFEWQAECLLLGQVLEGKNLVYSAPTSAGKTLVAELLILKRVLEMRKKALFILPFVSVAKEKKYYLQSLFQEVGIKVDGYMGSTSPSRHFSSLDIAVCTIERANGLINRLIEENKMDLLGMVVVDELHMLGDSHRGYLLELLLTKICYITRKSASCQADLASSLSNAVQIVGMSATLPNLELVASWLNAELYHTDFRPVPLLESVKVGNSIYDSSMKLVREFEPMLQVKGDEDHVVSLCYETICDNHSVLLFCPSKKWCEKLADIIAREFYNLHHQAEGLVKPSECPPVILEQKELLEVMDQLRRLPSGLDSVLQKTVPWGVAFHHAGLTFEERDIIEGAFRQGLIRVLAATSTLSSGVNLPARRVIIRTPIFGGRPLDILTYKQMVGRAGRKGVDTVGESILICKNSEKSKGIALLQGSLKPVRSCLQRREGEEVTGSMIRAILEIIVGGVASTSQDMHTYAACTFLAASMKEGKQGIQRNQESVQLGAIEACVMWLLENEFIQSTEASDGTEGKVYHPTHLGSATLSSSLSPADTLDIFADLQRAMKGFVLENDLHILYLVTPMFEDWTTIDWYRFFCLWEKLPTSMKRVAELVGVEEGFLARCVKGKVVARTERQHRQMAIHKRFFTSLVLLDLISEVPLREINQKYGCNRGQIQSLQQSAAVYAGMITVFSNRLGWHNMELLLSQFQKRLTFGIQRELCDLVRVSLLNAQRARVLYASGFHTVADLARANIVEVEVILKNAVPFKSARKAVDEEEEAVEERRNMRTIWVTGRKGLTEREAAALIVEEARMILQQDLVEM
IC50 (Polθ ATPase; class symbols),IC50 (Polθ ATPase; specific values),IC50 (DLD-1 BRCA2-/- cells),SMILES,IC50 [1]
≤ 2 nM,0.6 nM,189 nM,"COc1cnc(C(F)F)cc1-c1cc(C)ncc1C(=O)NS(=O)(=O)Cc1ccc([C@H](C)OC)cc1 [cpd-6, (S)-2'-(Difluoromethyl)-5'-methoxy-N-((4-(1-methoxyethyl)benzyl)sulfonyl)-6-methyl-[4,4'-bipyridine]-3-carboxamide]",
≤ 2 nM,0.71 nM,24 nM,"COc1ccc(C(F)F)cc1-c1cc(C)ccc1C(=O)NS(=O)(=O)Cc1ccc([C@H](C)OC)cc1 [cpd-3, (S)-5'-(difluoromethyl)-2'-methoxy-N-((4-(1-methoxyethyl)benzyl)sulfonyl)-5-methyl-[1,1'-biphenyl]-2-carboxamide]",
,,154 nM,"COc1ccc(C(F)F)cc1-c1cc(C)ccc1C(=O)NS(=O)(=O)Cc1ccc(COC(F)F)cc1 [cpd-15, N-((4-((Difluoromethoxy)methyl)benzyl)sulfonyl)-5'-(difluoromethyl)-2'-methoxy-5-methyl-[1,1'-biphenyl]-2-carboxamide]",
≤ 2 nM,0.65 nM,17 nM,"COc1cnc(C(F)F)cc1-c1cc(C)ccc1C(=O)NS(=O)(=O)Cc1ccc([C@H](C)OC)cc1 [cpd-4, (S)-2-(2-(Difluoromethyl)-5-methoxypyridin-4-yl)-N-((4-(1-methoxyethyl)benzyl)sulfonyl)-4-methylbenzamide]",1 nM
≤ 2 nM,1.4 nM,,"COc1ccc(C(F)F)cc1-c1cc(C)ccc1C(=O)NS(=O)(=O)Cc1ccc(C(C)OC)nc1 (centres unmarked) [cpd-20, 5'-(Difluoromethyl)-2'-methoxy-N-(((6-(1-methoxyethyl)pyridin-3-yl)methyl)sulfonyl)-5-methyl-[1,1'-biphenyl]-2-carboxamide]",
≤ 2 nM,0.45 nM,21 nM,"[2H]C([2H])([2H])O[C@@H](C)c1ccc(CS(=O)(=O)NC(=O)c2ccc(C)cc2-c2cc(C(F)F)ncc2OC)cc1 [cpd-19, (S)-2-(2-(Difluoromethyl)-5-methoxypyridin-4-yl)-N-((4-(1-(methoxy-d3)ethyl)benzyl)sulfonyl)-4-methylbenzamide]",2 nM
≤ 2 nM,1.4 nM,17 nM,"[2H]C([2H])([2H])Oc1cnc(C(F)F)cc1-c1cc(C([2H])([2H])[2H])ccc1C(=O)NS(=O)(=O)Cc1ccc([C@H](C)OC([2H])([2H])[2H])cc1 [cpd-18, (S)-2-(2-(Difluoromethyl)-5-(methoxy-d3)pyridin-4-yl)-N-((4-(1-(methoxy-d3)ethyl)benzyl)sulfonyl)-4-(methyl-d3)benzamide]",1.3 nM
,,22 nM,"[2H]C([2H])([2H])O[C@@H](C)c1ccc(CS(=O)(=O)NC(=O)c2ccc(C([2H])([2H])[2H])cc2-c2nc(C(F)F)c(F)cc2OC)cc1 [cpd-23, (S)-2-(6-(Difluoromethyl)-5-fluoro-3-methoxypyridin-2-yl)-N-((4-(1-(methoxy-d3)ethyl)benzyl)sulfonyl)-4-(methyl-d3)benzamide]",
≤ 2 nM,1 nM,70 nM,"COc1ccc(C(F)F)cc1-c1cc(CC(=O)N(C)C2CC2)ccc1C(=O)NS(=O)(=O)Cc1ccc(C(C)C)cc1 [cpd-12, 5-(2-(Cyclopropyl(methyl)amino)-2-oxoethyl)-5'-(difluoromethyl)-N-((4-isopropylbenzyl)sulfonyl)-2'-methoxy-[1,1'-biphenyl]-2-carboxamide]",
≤ 2 nM,0.88 nM,202 nM,"COc1ccc(C(F)F)cc1-c1cc(Cc2nnc(C)o2)ccc1C(=O)NS(=O)(=O)Cc1ccc(C(C)C)cc1 [cpd-13, 5'-(Difluoromethyl)-N-((4-isopropylbenzyl)sulfonyl)-2'-methoxy-5-((5-methyl-1,3,4-oxadiazol-2-yl)methyl)-[1,1'-biphenyl]-2-carboxamide]",
≤ 2 nM,0.71 nM,59 nM,"COc1ccc(C(F)F)cc1-c1cc(C)ccc1C(=O)NS(=O)(=O)Cc1ccc([C@@H](C)OC)cc1 [cpd-7, (R)-5'-(Difluoromethyl)-2'-methoxy-N-((4-(1-methoxyethyl)benzyl)sulfonyl)-5-methyl-[1,1'-biphenyl]-2-carboxamide]",
≤ 2 nM,1.6 nM,108 nM,"COc1ccc(C(F)F)cc1-c1cc(C)ccc1C(=O)NS(=O)(=O)Cc1ccc(C(OC)C(F)(F)F)cc1 (centres unmarked) [cpd-14, 5'-(Difluoromethyl)-2'-methoxy-5-methyl-N-((4-(2,2,2-trifluoro-1-methoxyethyl)benzyl)sulfonyl)-[1,1'-biphenyl]-2-carboxamide]",
≤ 2 nM,0.52 nM,63 nM,"COc1ccc(C(F)F)cc1-c1cc(C)ncc1C(=O)NS(=O)(=O)Cc1ccc([C@@H](C)OC)cc1 [cpd-9, (R)-4-(5-(Difluoromethyl)-2-methoxyphenyl)-N-((4-(1-methoxyethyl)benzyl)sulfonyl)-6-methylnicotinamide]",
≤ 2 nM,1.1 nM,514 nM,"COc1cnc(C(F)F)cc1-c1cc(C)ncc1C(=O)NS(=O)(=O)Cc1ccc([C@@H](C)OC)cc1 [cpd-10, (R)-2'-(Difluoromethyl)-5'-methoxy-N-((4-(1-methoxyethyl)benzyl)sulfonyl)-6-methyl-[4,4'-bipyridine]-3-carboxamide]",
,,33 nM,"[2H]C([2H])([2H])O[C@@H](C)c1ccc(CS(=O)(=O)NC(=O)c2ccc(C([2H])([2H])[2H])cc2-c2cc(C(F)F)c(F)nc2OC)cc1 [cpd-24, (S)-2-(5-(Difluoromethyl)-6-fluoro-2-methoxypyridin-3-yl)-N-((4-(1-(methoxy-d3)ethyl)benzyl)sulfonyl)-4-(methyl-d3)benzamide]",
